Source: PubChem BioAssay (NCI)
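Briefly, cells in 96-well plates were exposed to five compound concentrations for 48 h, and endpoints were estimated by linear interpolation. Here, GI50 denotes the concentration required for 50% inhibition of growth. At the TGI there is no net growth.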

Columns and labels:
Experiment in all cases: NCI tumour cell line growth inhibition, 48 h
ACHN renal = test system: ACHN renal
NCI-H23 lung = test system: NCI-H23 lung
OVCAR-5 ovarian = test system: OVCAR-5 ovarian
SF-268 CNS = test system: SF-268 CNS
SF-539 CNS = test system: SF-539 CNS
SK-MEL-28 melanoma = test system: SK-MEL-28 melanoma
U251 CNS = test system: U251 CNS
UACC-257 melanoma = test system: UACC-257 melanoma
UO-31 renal = test system: UO-31 renal
SK-MEL-5 melanoma = test system: SK-MEL-5 melanoma

Row | SMILES | TGI (ACHN renal) [µM] | TGI (NCI-H23 lung) [µM] | TGI (OVCAR-5 ovarian) [µM] | TGI (SF-268 CNS) [µM] | TGI (SF-539 CNS) [µM] | TGI (SK-MEL-28 melanoma) [µM] | TGI (U251 CNS) [µM] | TGI (UACC-257 melanoma) [µM] | TGI (UO-31 renal) [µM] | TGI (SK-MEL-5 melanoma) [µM] | GI50 (ACHN renal) [µM] | GI50 (NCI-H23 lung) [µM] | GI50 (OVCAR-5 ovarian) [µM] | GI50 (SF-268 CNS) [µM] | GI50 (SK-MEL-28 melanoma) [µM] | GI50 (SK-MEL-5 melanoma) [µM] | GI50 (U251 CNS) [µM] | GI50 (UACC-257 melanoma) [µM] | GI50 (UO-31 renal) [µM] | GI50 (SF-539 CNS) [µM]
1 | N#C/C(=C1\OC(=O)C(c2ccc(Br)cc2)=C1O)c1ccc(Br)cc1 | 29.6 | 26.2 | 33.2 | 29.5 | 30 | 31.7 | 26.1 | 29.5 | 28.5 | – | – | – | – | – | – | – | – | – | – | –
2 | CNC(=O)OCc1nc(SC2CCCCO2)n(C)c1COC(=O)NC (centres undefined) | – | > 100 | > 100 | > 100 | > 100 | > 100 | > 100 | > 100 | > 100 | > 100 | – | – | – | – | – | – | – | – | – | –
3 | COc1ccc2c(c1)C(O)(C(F)(F)F)c1cc(C(=O)C(F)(F)F)c3ccccc3c1N2 (centres undefined) | 18.1 | 25.6 | 27.5 | 24.1 | 31.3 | 27.7 | – | 26.4 | 21.5 | 26.6 | – | – | – | – | – | – | – | – | – | –
4 | COC(=O)c1csnn1 | > 100 | > 100 | – | > 100 | > 100 | > 100 | > 100 | > 100 | > 100 | > 100 | – | – | – | – | – | – | – | – | – | –
5 | C[N+](C)(C)CC(=O)N/N=C(/Cc1nc2c3c(ccc2[nH]c1=O)C(=O)c1ccccc1C3=O)C(=O)Nc1ccc(Cl)c(Cl)c1 | > 100 | > 100 | > 100 | > 100 | > 100 | > 100 | – | > 100 | 47.2 | > 100 | – | – | – | – | – | – | – | – | – | –
6 | Cc1ccc2c(ccc3c[n+]4c5ccccc5ccc4n32)c1 | > 100 | 3.51 | 45.1 | 2.13 | – | 3.32 | 2.12 | 3.82 | 54 | 2.33 | 4.12 | 0.606 | 4.42 | 0.39 | 1.2 | 1.01 | 0.361 | 1.43 | 5.42 | –
7 | Cc1sc(C(=O)Nc2cc(C(=O)NCCCN(C)C)n(C)c2)cc1NC(=O)CCCN1C(=O)c2cccc3cccc(c23)C1=O | > 100 | > 100 | > 100 | > 100 | > 100 | > 100 | > 100 | – | > 100 | > 100 | > 100 | > 100 | > 100 | > 100 | > 100 | 38.2 | > 100 | – | > 100 | > 100
8 | O=C1c2ccccc2-c2c1c1ccccc1c(=O)n2CCCNCCCNCCCn1c2c(c3ccccc3c1=O)C(=O)c1ccccc1-2 | 0.388 | 1.64 | 0.731 | 4.13 | – | 2.83 | 0.122 | 2.25 | 0.215 | 1.22 | < 0.01 | 0.0383 | 0.0763 | 0.231 | 1.17 | 0.12 | < 0.01 | 0.811 | 0.0878 | –
9 | COc1cc(/C=C2\C(=O)N(C(=O)Cc3ccccc3)N=C2C)ccc1O | > 100 | > 100 | > 100 | > 100 | > 100 | > 100 | – | > 100 | > 100 | > 100 | – | – | – | – | – | – | – | – | – | –
10 | O=C(Cn1ccc(=O)[nH]c1=O)Nc1ccc(C(=O)O)c(O)c1 | > 100 | > 100 | > 100 | > 100 | – | > 100 | > 100 | > 100 | > 100 | > 100 | – | – | – | – | – | – | – | – | – | –
11 | COC(=O)[C@@H](C)C[C@H](Cc1ccccc1)NC(=O)c1nc([C@@H](C[C@H](C(C)C)N(C)C(=O)[C@@H](NC(=O)[C@H]2CCCCN2C)C(C)C)OC(C)=O)sc1C | > 16.7 | > 16.7 | > 16.7 | > 16.7 | 0.00822 | – | > 16.7 | – | > 16.7 | 0.0565 | 0.00585 | 0.00302 | 0.00478 | 0.00472 | – | < 0.00167 | < 0.00167 | – | 0.0118 | 0.00239
12 | COC(=O)CCC1CCc2c(OC)ccc(O)c2C1=O (centres undefined) | > 100 | > 100 | – | > 100 | > 100 | > 100 | > 100 | > 100 | > 100 | > 100 | – | – | – | – | – | – | – | – | – | –
13 | CCCN=Cc1cc(Cc2ccc(O)c(C=NCCC)c2)ccc1O | 53.4 | 26.2 | 36.6 | 46.4 | 9 | – | 9.22 | 60.8 | 36.3 | 17.2 | – | – | – | – | – | – | – | – | – | –
14 | N#CC(C(=O)/C(=N/NC(=O)c1ccccc1O)C(C#N)c1ccc(Cl)cc1)c1ccc(Cl)cc1 (centres undefined) | 29.6 | 23.7 | 34.3 | 32.2 | 31.3 | 27.7 | 22.5 | 27.7 | 30.9 | – | – | – | – | – | – | – | – | – | – | –
15 | Cc1ccncc1.[O]=[Ge].[O]=[Ge].[O]=[Ge].[O]=[Ge].[O]=[Ge].[O]=[Ge][OH].[O]=[Ge][OH] | > 100 | > 100 | > 100 | > 100 | > 100 | > 100 | – | > 100 | > 100 | > 100 | > 100 | > 100 | > 100 | > 100 | > 100 | > 100 | – | > 100 | > 100 | > 100
16 | CCCCCCCCCCCCOC(=S)NCCCC | 50.5 | 57.9 | 51.4 | 58.1 | 48.5 | 90.9 | 37.2 | 44 | 20.1 | – | – | – | – | – | – | – | – | – | – | –
17 | Cc1[c-]onc1C.Cc1[c-]onc1C.[Ag].[Ag].[NH-]S(=O)(=O)c1ccc(N=Nc2cc(N=Nc3ccc(S([NH-])(=O)=O)cc3)c3c(NC(=O)C(Cl)Cl)cccc3c2OC(=O)C(Cl)Cl)cc1 | 11.9 | 22.8 | 19 | 28.1 | > 50 | 17 | 18.8 | – | 12.8 | 6.07 | 5.13 | 8.3 | 9.92 | 8.78 | 8.18 | 1.71 | 8.45 | – | 6.06 | 14.2
18 | CCCc1[nH]nc(CCC(=O)N(Cc2ccccc2)Cc2ccccc2)c1CC | > 100 | > 100 | > 100 | > 100 | > 100 | > 100 | – | > 100 | > 100 | > 100 | – | – | – | – | – | – | – | – | – | –
